Test [1] addresses T1, human recombinant beta-2 adrenoreceptors (Homo sapiens, UniProt P07550).
T1 construct: expressed in transfected cells; host or cells: CHO cells
In words: Functional agonism of human recombinant beta-2 adrenoreceptors expressed in CHO cells (cAMP, HTRF). The format is cell-based. The note with it: cAMP elevation, 30 min. The procedure:
Functional Agonism of Human Recombinant Beta-2 Adrenoreceptors Expressed in Chinese Hamster Oocytes (CHO)
Test compounds were incubated for 30 min with CHO cells expressing the human recombinant beta-2 adrenoreceptors. Agonism of the receptor was measured by the elevation of intracellular cyclic-AMP over control levels detected using a homogeneous time resolved fluorescence (HTRF) format. Compounds were determined to be “full” or “partial” agonists based on the maximum level of cAMP accumulated compared to the control compound isoproterenol which is a full agonist in this assay system. Concentration response curves were generated for test compounds and the EC50 (molar concentration of the agonist which produced 50% of the maximal response for that compound) was determined. These assays were performed using a protocol based on the original description of the assay by Baker, J. G. (2005) Brit. J. Pharmacol.; 144:317-322.
EC50 determinations for the compounds presented above are seen in the third column of Table 1 (Beta 2 EC50).

Test [2] concerns the target T1, human recombinant beta-2 adrenoreceptors. In words: Beta-2 adrenoceptor binding assay, displacement of [3H](−)CGP-12177. To be noted: CHO cells expressing human beta-2 adrenoreceptors, [3H](−)CGP-12177 0.3 nM, 120 min. The procedure:
Beta-2 Adrenoceptor Binding Assay
Test compounds were incubated for 120 min with Chinese hamster oocyte (CHO) cells expressing the human recombinant beta-2 adrenoreceptors. Binding of test compounds to the beta-2 adrenoreceptors was determined by measuring the displacement of the radiolabeled ligand [^3H](−)CGP-12177 (0.3 nM) from the receptor measured by a scintillation counting. Concentration response curves were generated for test compounds and the IC50 (molar concentration of the compound which produced 50% inhibition for the maximal response for that compound) was determined. These assays were performed using a protocol based on the original description of the assay by Joseph et al., (2004) Naun.-Sch. Arch. Pharm.; 369:525-532.
IC50 determinations for the compounds presented above are seen in the second column of Table 1 (Beta 2 IC50).

In a further test the target is T2, Human recombinant PDE4B2 (Homo sapiens, UniProt Q07343).
T2 construct: purchased BPS Bioscience
The test can be described thus: Inhibition of PDE4B2 enzyme activity (PDE Glo Assay). The format is biochemical. The note with it: human recombinant PDE4B2, 50 nM cAMP; read-out: PDE4 IC50. The procedure: Inhibition of PDE4B4 Enzyme Activity
The inhibitory activity of test compounds were determined using the PDE Glo Assay (Promega, V1361). The PDE-Glo Reaction Buffer was prepared (1 mL 5× buffer+4 mL water) and 150 nM solution of test compound dissolved in the Reaction Buffer, followed by 1:3 serial dilutions into Reaction Buffer. […] Human recombinant PDE4B2 (BPS Bioscience) was added to test compound in Reaction Buffer at a concentration of 0.12 nM per reaction. The enzyme and test compound were pre-incubated together at rt for 10 min. 50 nM of the enzyme substrate cAMP was then added to initiate the enzyme reaction, with the reaction terminated after one hour. Termination Buffer (1 mL 5× termination buffer+3.9 mL water+100 μL of 100 mM IBMX (ICN Chemicals, in DMSO)), was added to each reaction well to terminate the reaction. Detection Buffer (1 mL 5×PDE-Glo Detection buffer+3.96 mL water+40 μL PKA (supplied in kit)) was added to the cAMP-enzyme-test compound mix and this secondary reaction proceeded for 20 minutes at rt. An equal volume of Kinase Glo Reagent was then added to the reaction mixture and after 10 min luminescence was measured using a luminometer (EnVision, 0.1 sec read for luminescence). Luminescence values were […] related to levels of cAMP in the reaction mixture. Data were plotted as relative light units (RLU) versus test compound concentration and the IC50 determined using GraphPad Prism 5.0, using a nonlinear curve fit in a single-site binding model.
IC50 determinations for the compounds presented above are seen in the first column of Table 1 (PDE4 IC50).

Test [3] has as its system LPS-induced TNF-α release from human peripheral blood mononuclear cells (PBMC). In words: Inhibition of LPS-induced TNF-α release from human PBMC. To be noted: LPS 0.4 ng/mL, 6 h, presence or absence of ICI-118551 not given. Format: cell-based. The text has this:
Inhibition of Lipopolysaccharide (LPS)-Induced Tumour Necrosis Factor Alpha (TNF-α) Release from Human Peripheral Blood Mononuclear Cells (PBMC)
Human whole blood was drawn from donors and cell purification initiated within two hours. Peripheral blood mononuclear cells (PBMC) were purified using a standard Ficoll gradient purification technique and aliquoted at a concentration of 100,000 cells/well in 96 well plates. Beta-2 adrenoreceptor agonists are also anti-inflammatory for some immune cells expressing the receptor and in this assay they can inhibit tumor necrosis factor-alpha (TNF-α) production. Therefore PBMC were pre-incubated for 30 min in the presence of the beta-2 adrenoreceptor antagonist ICI-118551 (3-(isopropylamino)-1-[(7-methyl-4-indanyl)oxy]butan-2-ol) (10 μM) to determine the PDE4 directed activity of test compounds, and in the absence of ICI-118551 for the combined PDE4 and beta-2 receptor directed activity. Test compounds were dissolved in DMSO and diluted in buffer (final DMSO concentration of 0.1% v/v) and were then added to the cell suspensions and pre-incubated for a further 1 h at 37° C. LPS solution was then added (0.4 ng/mL) and the cells incubated for a further 6 h. At the end of the incubation period the cell supernatants were collected and TNF-α was measured using a Procarta Cytokine Assay Kit (Affymetrix, Santa Clara, Calif.) according to the manufacturers' instructions. Data were analyzed using MiraiBio Masterplex QT v4.0 software (MasterPlex Version 1.0.1.18 Copyright 2008, Hitachi Software Engineering Co., Ltd) and used to extrapolate Mean Fluorescence Intensity (MFI) into concentrations of TNF-α and mean values from replicate wells were determined. Inhibition curves were plotted using a nonlinear curve fit employing a single-site binding model to determine the IC50 value for each test compound in the presence or absence of ICI-118551 using GraphPad Prism 5 for Windows, version 5.02 (GraphPad Software, San Diego Calif.).
EC50 determinations for the compounds presented above are seen in the fourth column of Table 1 (PBMC TNF EC50).

T1 sequence (P07550 whole entry): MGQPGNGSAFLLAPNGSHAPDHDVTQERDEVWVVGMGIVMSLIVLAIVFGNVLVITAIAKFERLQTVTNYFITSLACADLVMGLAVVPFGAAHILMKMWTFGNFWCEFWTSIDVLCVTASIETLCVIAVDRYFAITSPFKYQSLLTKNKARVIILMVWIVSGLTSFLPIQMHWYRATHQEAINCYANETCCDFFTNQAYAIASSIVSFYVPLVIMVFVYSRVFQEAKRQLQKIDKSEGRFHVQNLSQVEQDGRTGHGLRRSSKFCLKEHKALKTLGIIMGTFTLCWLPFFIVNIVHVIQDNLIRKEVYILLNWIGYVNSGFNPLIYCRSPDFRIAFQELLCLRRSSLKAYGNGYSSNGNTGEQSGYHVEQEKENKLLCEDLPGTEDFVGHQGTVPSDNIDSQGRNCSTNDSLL
T2 sequence (Q07343 1-564 isoform Q07343-2): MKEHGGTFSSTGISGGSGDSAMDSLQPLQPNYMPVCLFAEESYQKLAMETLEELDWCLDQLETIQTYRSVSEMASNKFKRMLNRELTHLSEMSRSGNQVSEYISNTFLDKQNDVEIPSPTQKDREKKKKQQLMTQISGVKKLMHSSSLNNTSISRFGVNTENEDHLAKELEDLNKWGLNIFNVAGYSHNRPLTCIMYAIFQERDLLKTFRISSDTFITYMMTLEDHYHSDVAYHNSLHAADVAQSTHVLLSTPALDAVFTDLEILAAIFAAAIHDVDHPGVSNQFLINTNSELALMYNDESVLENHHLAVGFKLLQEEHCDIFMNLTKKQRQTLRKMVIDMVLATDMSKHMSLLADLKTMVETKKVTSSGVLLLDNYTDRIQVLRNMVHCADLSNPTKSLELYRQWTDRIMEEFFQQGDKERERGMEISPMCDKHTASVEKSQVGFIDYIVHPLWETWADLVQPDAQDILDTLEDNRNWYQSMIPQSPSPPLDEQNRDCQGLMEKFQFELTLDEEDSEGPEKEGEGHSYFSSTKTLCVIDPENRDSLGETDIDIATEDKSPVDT

As for `CCc1nc2c(cnn2CC)c(NC2CCOCC2)c1CNC(=O)c1cccc(CC(C)NC[C@H](O)c2ccc(O)c3[nH]c(=O)ccc23)c1` (stereo partly drawn) [Example 1, N-[[1,6-Diethyl-4-[(tetrahydro-2H-pyran-4-yl)amino]-1H-pyrazolo[3,4-b]pyridin-5-yl]methyl]-3-[2-[[(R)-2-hydroxy-2-(8-hydroxy-2-oxo-1,2-dihydroquinolin-5-yl)ethyl]amino]propyl]benzamide], the EC50 in test [1] and in test [3] was below 100 nM each time. Besides, the 50% inhibitory concentration (IC50) (in test [2]; on Human recombinant PDE4B2) was below 100 nM in each case.

In the case of `CCc1nc2c(cnn2CC)c(NC2CCOCC2)c1CNC(=O)c1cccc(CNC[C@H](O)c2ccc(O)c(CO)c2)c1` [Example 7, (R)—N-[[1,6-Diethyl-4-[(tetrahydro-2H-pyran-4-yl)amino]-1H-pyrazolo[3,4-b]pyridin-5-yl]methyl]-3-[[[2-hydroxy-2-[4-hydroxy-3-(hydroxymethyl)phenyl]ethyl]amino]methyl]benzamide], the EC50 in test [1] and in test [3] was above 300 nM in each case. For the same compound, the IC50 in test [2] is above 300 nM; on Human recombinant PDE4B2 it was below 100 nM.

Turning to `CCc1nc2c(cnn2CC)c(NC2CCOCC2)c1CNC(=O)c1cccc(CC(C)(C)NC[C@H](O)c2ccc(O)c3[nH]c(=O)ccc23)c1` [Example 4, (R)—N-[[1,6-Diethyl-4-[(tetrahydro-2H-pyran-4-yl)amino]-1H-pyrazolo[3,4-b]pyridin-5-yl]methyl]-3-[2-[[2-hydroxy-2-(8-hydroxy-2-oxo-1,2-dihydroquinolin-5-yl)ethyl]-amino]-2-methylpropyl]benzamide], the concentration giving a half-maximal response (EC50) in test [1] and in test [3] was below 100 nM throughout. The concentration for half-maximal inhibition (IC50) (in test [2]; at Human recombinant PDE4B2) was below 100 nM throughout.

Consider `CCc1nc2c(cnn2CC)c(NC2CCOCC2)c1CNC(=O)c1cccc(CNC[C@H](O)c2ccc(O)c3[nH]c(=O)ccc23)c1` [Example 5, (R)—N-[[1,6-Diethyl-4-[(tetrahydro-2H-pyran-4-yl)amino]-1H-pyrazolo[3,4-b]pyridin-5-yl]methyl]-3-[[[2-hydroxy-2-(8-hydroxy-2-oxo-1,2-dihydroquinolin-5-yl)ethyl]amino]methyl]benzamide], for which the 50% effective concentration (EC50) in test [1] and in test [3] was below 100 nM throughout. Also, the IC50 in test [2] is below 300 nM; at Human recombinant PDE4B2, below 100 nM.

Turning to `CCc1nc2c(cnn2CC)c(NC2CCOCC2)c1CNC(=O)c1ccc(CNC[C@H](O)c2ccc(O)c(CO)c2)cc1` [Example 8, (R)—N-[[1,6-diethyl-4-[(tetrahydro-2H-pyran-4-yl)amino]-1H-pyrazolo[3,4-b]pyridin-5-yl]methyl]-4-[[[2-hydroxy-2-[4-hydroxy-3-(hydroxymethyl)phenyl]ethyl]amino]methyl]benzamide], the concentration for a half-maximal effect (EC50) in test [1] was above 300 nM; in test [3], below 300 nM. Besides, the figures for the concentration for half-maximal inhibition (IC50) (in test [2]; on Human recombinant PDE4B2) were above 300 nM and below 100 nM, respectively.

Take `CCc1nc2c(cnn2CC)c(NC2CCOCC2)c1CNC(=O)c1cccc(CC(C)NC[C@H](O)c2ccc(O)c(CO)c2)c1` (stereo partly drawn) [Example 2, N-[[1,6-Diethyl-4-[(tetrahydro-2H-pyran-4-yl)amino]-1H-pyrazolo[3,4-b]pyridin-5-yl]methyl]-3-[2-[[(R)-2-hydroxy-2-[4-hydroxy-3-(hydroxymethyl)phenyl]ethyl]amino]propyl]benzamide]: the EC50 in test [1] and in test [3] was below 100 nM each time. Moreover, the IC50 in test [2] was above 300 nM; on Human recombinant PDE4B2, below 100 nM.

With `CCc1nc2c(cnn2CC)c(NC2CCOCC2)c1CNC(=O)c1cccc(CC(C)(C)NC[C@H](O)c2ccc(O)c(CO)c2)c1` [Example 3, (R)—N-[[1,6-Diethyl-4-[(tetrahydro-2H-pyran-4-yl)amino]-1H-pyrazolo[3,4-b]pyridin-5-yl]methyl]-3-[2-[[2-hydroxy-2-[4-hydroxy-3-(hydroxymethyl)phenyl]ethyl]amino]-2-methylpropyl]benzamide], the EC50 is below 300 nM in test [1] and below 100 nM in test [3]. Moreover, the figures for the IC50 (in test [2]; on Human recombinant PDE4B2) were below 300 nM and below 100 nM, respectively.

In the case of `CCc1nc2c(cnn2CC)c(NC2CCOCC2)c1CNC(=O)c1ccc(CNC[C@H](O)c2ccc(O)c3[nH]c(=O)ccc23)cc1` [Example 6, (R)—N-[[1,6-diethyl-4-[(tetrahydro-2H-pyran-4-yl)amino]-1H-pyrazolo[3,4-b]pyridin-5-yl]methyl]-4-[[[2-hydroxy-2-(8-hydroxy-2-oxo-1,2-dihydroquinolin-5-yl]ethyl]amino]methyl]benzamide], the concentration giving a half-maximal response (EC50) in test [1] and in test [3] was below 100 nM in each case. The IC50 in test [2] was above 300 nM; on Human recombinant PDE4B2, below 100 nM.

For the compound `CCc1nc2c(cnn2CC)c(NC2CCOCC2)c1CNC(=O)Nc1ccc(C#CCCCNC[C@H](O)c2ccc(O)c3c2OCC(=O)N3)cc1` [Example 15], the EC50 in test [1] and in test [3] was below 100 nM throughout. For the same compound, in test [2], the half-maximal inhibitory concentration (IC50) is below 100 nM.

Consider `CCc1nc2c(cnn2CC)c(NC2CCOCC2)c1CNc1c(Nc2ccc(CCCCCNC[C@H](O)c3ccc(O)c4[nH]c(=O)ccc34)cc2)c(=O)c1=O` [Example 13, (R)-3-(((1,6-diethyl-4-((tetrahydro-2H-pyran-4-yl)amino)-1H-pyrazolo[3,4-b]pyridin-5-yl)methyl)amino)-4-((4-(5-((2-hydroxy-2-(8-hydroxy-2-oxo-1,2-dihydroquinolin-5-yl)ethyl)amino)pentyl)phenyl)amino)cyclobut-3-ene-1,2-dione], for which the EC50 in test [1] and in test [3] was below 100 nM in each case. The IC50 in test [2] was below 100 nM.

As to `CCc1nc2c(cnn2CC)c(NC2CCOCC2)c1CNC(=O)Nc1ccc(CCCCOCCCCCCNC[C@H](O)c2ccc(O)c3[nH]c(=O)ccc23)cc1` [Example 14, (R)-1-((1,6-diethyl-4-((tetrahydro-2H-pyran-4-yl)amino)-1H-pyrazolo[3,4-b]pyridin-5-yl)methyl)-3-(4-(4-((6-((2-hydroxy-2-(8-hydroxy-2-oxo-1,2-dihydroquinolin-5-yl)ethyl)amino)hexyl)oxy)butyl)phenyl)urea], the EC50 in test [1] and in test [3] was below 100 nM throughout. Besides, the 50% inhibitory concentration (IC50) in test [2] was below 100 nM.

Values taken from US8367829B2, “Bi-functional pyrazolopyridine compounds” (Gilead Sciences, Inc., priority 2010, dated 2013).
